# From patent publication US20180125835A1, “Dosage and Use of an A2A Antagonist” (H. Lundbeck A/S, priority 2014, published 2018)
# Like-named read-outs stand apart in the source and are kept apart here.
# What was measured:
# A2A receptor [1] = target: A2A receptor (Rattus norvegicus, UniProt P30543); assay: Reversal of CGS21680-induced hypolocomotion; type: in vivo
# Description: Doses of 0.01, 0.03, 0.06, 0.1 mg/kg were tested in a dosage form of 0.5 w/v % methyl cellulose 400 (viscosity: 400 cP) in distilled water. Drug was administered at a volume of 5 ml/kg, oral.
# Sixty (60) male Long Evans rats, 3 months age, were allocated into 6 groups of N=10 rats per group.
# The activity test, monitoring the rat's spontaneous activity was measured in the automated
# Med Associates activity test chamber for 20 minutes. The tracking arena was of dimension 17′W×17″L×12″H, sensor bars were secured 1″ above the floor to track distance travelled, and a second set of sensor bars were placed 6″ above the floor to measure vertical movement and rearing activity. The parameters set on the tracking software were: resolution—50 ms, box size—4 beams, resting delay—500 ms, and ambulatory trigger—2.
# A1 receptor = target: T1, A1 receptor (Rattus norvegicus, UniProt P25099); assay: Adenosine receptor binding affinity, rat A1
# T1 sequence (P25099 1-326): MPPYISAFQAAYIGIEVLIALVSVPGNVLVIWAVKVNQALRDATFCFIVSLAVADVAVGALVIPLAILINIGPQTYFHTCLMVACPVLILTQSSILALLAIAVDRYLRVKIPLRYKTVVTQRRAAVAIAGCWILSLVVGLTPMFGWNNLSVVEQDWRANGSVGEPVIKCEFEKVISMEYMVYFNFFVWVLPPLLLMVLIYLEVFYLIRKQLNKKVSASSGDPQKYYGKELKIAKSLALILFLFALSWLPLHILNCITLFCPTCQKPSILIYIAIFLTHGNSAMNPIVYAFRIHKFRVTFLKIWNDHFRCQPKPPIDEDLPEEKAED
# MPTP-lesion marmosets = assay: Disability reversal score in MPTP-lesion marmosets, PK/PD modelling; type: in vivo, marmoset; conditions: MPTP-treated marmosets, 0.1-3 mg/kg, Emax PK/PD modelling
# Description: Marmosets received several MPTP regimens (single MPTP regimen: 2 mg/kg, s.c., per day for 3 consecutive days) before the marmosets were used for PK/PD measurements.
# In the absence of any striatal occupancy data in marmoset to relate plasma concentration needed for EC80 A2A occupancy for human dose projection, a daily dose range of 3-24 mg was established based on predicted EC50-80 plasma concentrations of rat striatal occupancy and marmoset disability reversal score.
# A2A receptor [2] = target: A2A receptor (Homo sapiens, UniProt P29274); assay: PET study in humans of A2A receptor occupancy with [11C]-SCH442416; type: in vivo; conditions: for EC50: plasma concentration at PET scan, read-out: estimated EC50 of A2A receptor occupancy (converted)
# Description: There were 3 cohorts in the study, each including 2 subjects.
# In the Screening period (Days −28 to −4) safety screening procedures were performed and subject eligibility was confirmed following a magnetic resonance imaging (MRI) scan (Days −21 to −2). Eligible subjects were admitted to the clinic on Day −1. […] The subjects received the PET tracer [11C]-SCH442416 immediately prior to each PET scan.
# The PET tracer, [11C]-SCH442416 was provided as a radiopharmaceutical in an 11 mL sterile and pyrogen free type 1 glass vial as a solution for intravenous administration. The [11C]-SCH442416 solution consisted of up to 10% ethanol and 90% saline and was administered as an intravenous bolus in approximately […] of the saline/ethanol solution over approximately 20 seconds. Each subject received a maximum of 500 MBq of [11C]-SCH442416 for each PET scan.
# PET data were analysed using the simplified reference tissue method (SRTM). […] The SRTM implementation employed directly estimated the binding potential relative to the non-displaceable component (BPND), which can be thought of as a measure of specific binding.
# Receptor occupancy (RO) in a region of interest (ROI) can then be calculated directly as: RO=100×(1−BPND(post-dose)/BPND(baseline))
# Binding potential and estimated RO were listed and presented graphically versus CPET.
# [3] = Safety and tolerability study, single-dose pharmacokinetics (Parts A, B, C); type: in vivo, human; conditions: for intra-subject variability (CV %) for AUC0-inf / intra-subject variability (CV %) for Cmax: across the fasting doses; for half-life / Vd/F / Tmax / AUC(0-inf) / Cmax / AUC(0-t): human, oral; for Vd/F: read-out: Vz/F
# Description: The study was conducted in three parts: Parts A, B, and C.
# Parts A and B were single-dose escalations to determine the safety and tolerability in young healthy men, and in elderly men and women, respectively. Three doses (Cohorts A1 to A3) were tested in healthy young men: 1 mg (N=6), 5 mg (N=6), and 10 mg (N=5); placebo (N=8, total of the three cohorts). […] Two doses (Cohorts B1 and B2) were tested in healthy elderly men and women: 5 mg (N=9 men/4 women), 10 mg (N=4 men/4 women); placebo (N=6 men/4 women, total of the three cohorts). […] A washout period of at least 7 days separated each dose administration.
# [4] = both sexes, plasma, 5 mg, Part B, healthy elderly overall, arithmetic mean
# [5] = both sexes, plasma, 5 mg, Part C, elderly men and women, Fasting (N = 24)
# [6] = both sexes, plasma, 5 mg, Part C, elderly men and women, Fed (N = 12)
# [7] = both sexes, plasma, 10 mg, Part B, healthy elderly overall, arithmetic mean
# [8] = female, plasma, 5 mg, Part B, healthy elderly women, arithmetic mean
# [9] = female, plasma, 10 mg, Part B, healthy elderly women, arithmetic mean
# [10] = male, plasma, 1 mg, Part A, healthy young men, 1 mg single dose, mean (CV %)
# [11] = male, plasma, 5 mg, Part A, healthy young men, 5 mg single dose, mean (CV %)
# [12] = male, plasma, 5 mg, Part B, healthy elderly men, arithmetic mean
# [13] = male, plasma, 10 mg, Part A, healthy young men, 10 mg single dose, mean (CV %)
# [14] = male, plasma, 10 mg, Part B, healthy elderly men, arithmetic mean
# A2A receptor (Homo sapiens, UniProt P29274), sequence (P29274 whole entry): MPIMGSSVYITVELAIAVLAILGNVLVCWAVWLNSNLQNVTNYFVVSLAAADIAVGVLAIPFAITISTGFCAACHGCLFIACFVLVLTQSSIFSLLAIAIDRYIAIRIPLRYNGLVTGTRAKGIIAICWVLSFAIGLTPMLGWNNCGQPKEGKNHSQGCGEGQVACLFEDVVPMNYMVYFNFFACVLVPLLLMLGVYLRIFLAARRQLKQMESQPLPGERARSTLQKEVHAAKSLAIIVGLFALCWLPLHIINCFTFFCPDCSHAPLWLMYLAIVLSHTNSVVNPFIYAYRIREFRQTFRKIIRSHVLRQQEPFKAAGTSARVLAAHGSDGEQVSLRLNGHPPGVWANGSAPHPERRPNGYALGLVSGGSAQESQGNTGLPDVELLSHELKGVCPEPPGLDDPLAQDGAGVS
# A2A receptor (Rattus norvegicus, UniProt P30543), sequence (P30543 whole entry): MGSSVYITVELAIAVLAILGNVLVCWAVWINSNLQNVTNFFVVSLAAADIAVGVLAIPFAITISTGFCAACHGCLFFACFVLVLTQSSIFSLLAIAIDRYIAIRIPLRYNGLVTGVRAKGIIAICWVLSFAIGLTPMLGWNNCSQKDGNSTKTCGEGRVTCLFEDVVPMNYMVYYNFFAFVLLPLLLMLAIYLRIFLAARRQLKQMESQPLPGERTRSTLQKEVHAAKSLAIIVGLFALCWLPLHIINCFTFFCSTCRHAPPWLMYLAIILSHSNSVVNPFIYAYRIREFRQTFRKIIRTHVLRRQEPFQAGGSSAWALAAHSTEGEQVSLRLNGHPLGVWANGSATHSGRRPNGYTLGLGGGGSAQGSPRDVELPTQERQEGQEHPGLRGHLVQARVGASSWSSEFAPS
smiles,measurement,setting,value
Cc1ccc(C(=O)Nc2nc(-c3ccco3)c(C(=O)C3CCOCC3)s2)cn1 [Compound 504],reversal of CGS-induced hypolocomotion,A2A receptor [1]; 0.1 mg/kg oral,completely reversed
same,"reversal of CGS-hypolocomotion (distance travelled, rearing, ambulatory episodes)",A2A receptor [1]; 0.06 and 0.1 mg/kg doses,significantly reversed
same,ED50,"A2A receptor [1]; rat, po, read-out: ED50 for antagonism of the CGS-hypolocomotion",~0.06 mg/kg
same,Ki,A1 receptor,0.0507 ± 0.00318 µM
same,EC80 plasma concentration for disability reversal score,MPTP-lesion marmosets,0.175 µg/mL
same,estimated Emax of A2A receptor occupancy,"A2A receptor [2]; globus pallidus, Emax model vs CPET",101%
same,EC50,A2A receptor [2]; globus pallidus,0.173 µM
same,EC50,A2A receptor [2]; putamen,0.078 µM
same,dosage sufficient to reach an occupancy of 80%,"A2A receptor [2]; single oral dose, healthy young men",≤ 3 mg
same,differences in exposure between men and women,[3]; Part B,no marked differences
same,CL/F,"[3]; Part B, healthy elderly men, 5 mg, arithmetic mean",0.611 L/h
same,CL/F,"[3]; Part B, healthy elderly men, 10 mg, arithmetic mean",0.908 L/h
same,CL/F,"[3]; Part B, healthy elderly overall, 5 mg, arithmetic mean",0.597 L/h
same,CL/F,"[3]; Part B, healthy elderly overall, 10 mg, arithmetic mean",0.844 L/h
same,CL/F,"[3]; Part B, healthy elderly women, 5 mg, arithmetic mean",0.556 L/h
same,CL/F,"[3]; Part B, healthy elderly women, 10 mg, arithmetic mean",0.780 L/h
same,mean Cmax lower in the fed state than in the fasting state,"[3]; Part C, 5 mg",approximately 23%
same,overall exposure (AUC0-inf and AUC0-t) fed compared to fasting,"[3]; Part C, 5 mg",not statistically significantly different
same,intra-subject variability (CV %) for AUC0-inf,"[3]; Part C, men",27%
same,intra-subject variability (CV %) for Cmax,"[3]; Part C, men",16%
same,intra-subject variability (CV %) for AUC0-inf,"[3]; Part C, women",59%
same,intra-subject variability (CV %) for Cmax,"[3]; Part C, women",23%
same,time until which plasma concentration plateaued after Cmax,"[3]; Parts A and B, post-dose",approximately 5 hours
same,half-life,"[3]; both sexes, in vivo, Parts A and B, 1 to 10 mg, read-out: mean half-life (t1/2) across dose levels",19 to 25 h
same,Vd/F,"[3]; both sexes, plasma, 5 mg, Part B, healthy elderly overall, 5 mg, arithmetic mean",16.9 L
same,half-life,"[3]; both sexes, plasma, 5 mg, Part B, healthy elderly overall, 5 mg, arithmetic mean, read-out: t1/2 (converted)",22 h
same,Tmax,"[3]; both sexes, plasma, 5 mg, Part B, healthy elderly overall, 5 mg, median, read-out: tmax",1 h
same,AUC(0-inf),[3]; [4],9580 ng·h/mL
same,Cmax,[3]; [4],388 ng/mL
same,Tmax,"[3]; both sexes, plasma, 5 mg, Part C, 5 mg, read-out: delay of median tmax in the fed state",2 to 3 h
same,half-life,"[3]; both sexes, plasma, 5 mg, Part C, elderly men and women, 5 mg, Fasting (N = 24), read-out: t1/2 (converted)",14.9 h
same,half-life,"[3]; both sexes, plasma, 5 mg, Part C, elderly men and women, 5 mg, Fed (N = 11), read-out: t1/2 (converted)",15.8 h
same,AUC(0-inf),[3]; [5],6310 ng·h/mL
same,AUC(0-t),[3]; [5],5960 ng·h/mL
same,Cmax,[3]; [5],348 ng/mL
same,AUC(0-inf),"[3]; both sexes, plasma, 5 mg, Part C, elderly men and women, Fed (N = 11)",5960 ng·h/mL
same,AUC(0-t),[3]; [6],5560 ng·h/mL
same,Cmax,[3]; [6],269 ng/mL
same,Vd/F,"[3]; both sexes, plasma, 10 mg, Part B, healthy elderly overall, 10 mg, arithmetic mean",20.6 L
same,half-life,"[3]; both sexes, plasma, 10 mg, Part B, healthy elderly overall, 10 mg, arithmetic mean, read-out: t1/2 (converted)",20.2 h
same,Tmax,"[3]; both sexes, plasma, 10 mg, Part B, healthy elderly overall, 10 mg, median, read-out: tmax",0.75 h
same,AUC(0-inf),[3]; [7],14900 ng·h/mL
same,Cmax,[3]; [7],717 ng/mL
same,Tmax,"[3]; both sexes, plasma, Parts A and B, each dose, post-dose, read-out: median tmax",0.75 to 1.75 h
same,increase of exposure (AUC0-24 and Cmax) with dose,[3]; dose range 1 to 10 mg,approximate dose-proportional manner
same,Vd/F,"[3]; female, plasma, 5 mg, Part B, healthy elderly women, 5 mg, arithmetic mean",13.6 L
same,half-life,"[3]; female, plasma, 5 mg, Part B, healthy elderly women, 5 mg, arithmetic mean, read-out: t1/2 (converted)",17.4 h
same,Tmax,"[3]; female, plasma, 5 mg, Part B, healthy elderly women, 5 mg, median, read-out: tmax",1 h
same,AUC(0-inf),[3]; [8],9550 ng·h/mL
same,Cmax,[3]; [8],485 ng/mL
same,Vd/F,"[3]; female, plasma, 10 mg, Part B, healthy elderly women, 10 mg, arithmetic mean",19.6 L
same,half-life,"[3]; female, plasma, 10 mg, Part B, healthy elderly women, 10 mg, arithmetic mean, read-out: t1/2 (converted)",18.8 h
same,Tmax,"[3]; female, plasma, 10 mg, Part B, healthy elderly women, 10 mg, median, read-out: tmax",0.75 h
same,AUC(0-inf),[3]; [9],14100 ng·h/mL
same,Cmax,[3]; [9],781 ng/mL
same,differences in pharmacokinetic profile between healthy young and elderly subjects,[3]; in vivo,no apparent differences
same,AUC(0-inf),[3]; [10],2660 ng·h/mL
same,Cmax,[3]; [10],82.7 ng/mL
same,Vd/F,[3]; [10],13.4 L
same,half-life,"[3]; male, plasma, 1 mg, Part A, healthy young men, 1 mg single dose, mean (CV %), read-out: t1/2 (converted)",24.3 h
same,Tmax,"[3]; male, plasma, 1 mg, Part A, healthy young men, 1 mg single dose, median (min, max), read-out: tmax",1.25 h
same,AUC(0-inf),[3]; [11],12600 ng·h/mL
same,Cmax,[3]; [11],423 ng/mL
same,Vd/F,[3]; [11],14.8 L
same,half-life,"[3]; male, plasma, 5 mg, Part A, healthy young men, 5 mg single dose, mean (CV %), read-out: t1/2 (converted)",25 h
same,Tmax,"[3]; male, plasma, 5 mg, Part A, healthy young men, 5 mg single dose, median (min, max), read-out: tmax",1.75 h
same,Vd/F,"[3]; male, plasma, 5 mg, Part B, healthy elderly men, 5 mg, arithmetic mean",18 L
same,half-life,"[3]; male, plasma, 5 mg, Part B, healthy elderly men, 5 mg, arithmetic mean, read-out: t1/2 (converted)",23.5 h
same,Tmax,"[3]; male, plasma, 5 mg, Part B, healthy elderly men, 5 mg, median, read-out: tmax",1 h
same,AUC(0-inf),[3]; [12],9590 ng·h/mL
same,Cmax,[3]; [12],356 ng/mL
same,AUC(0-inf),[3]; [13],18100 ng·h/mL
same,Cmax,[3]; [13],787 ng/mL
same,Vd/F,[3]; [13],15.3 L
same,half-life,"[3]; male, plasma, 10 mg, Part A, healthy young men, 10 mg single dose, mean (CV %), read-out: t1/2 (converted)",19.3 h
same,Tmax,"[3]; male, plasma, 10 mg, Part A, healthy young men, 10 mg single dose, median (min, max), read-out: tmax",1 h
same,Vd/F,"[3]; male, plasma, 10 mg, Part B, healthy elderly men, 10 mg, arithmetic mean",21.6 L
same,half-life,"[3]; male, plasma, 10 mg, Part B, healthy elderly men, 10 mg, arithmetic mean, read-out: t1/2 (converted)",21.6 h
same,Tmax,"[3]; male, plasma, 10 mg, Part B, healthy elderly men, 10 mg, median, read-out: tmax",0.75 h
same,AUC(0-inf),[3]; [14],15700 ng·h/mL
same,Cmax,[3]; [14],652 ng/mL
